Entries after “also recorded” stand apart in the source; their conditions may differ.
Key:
[1] = target: T1, carnitine acetyltransferase (CAT) (Columba livia, UniProt P52826); assay: Initial screening of CAT inhibition, spectrophotometric kinetic method with Ellman's reagent; type: biochemical; conditions: read in first minute of reaction; for inhibition at 100 µM: read-out: CAT inhibition (%), inhibitor 100 μM; for inhibition at 250 µM: read-out: CAT inhibition (%), inhibitor 250 μM; for inhibition at 1000 µM: read-out: CAT inhibition (%), inhibitor 1000 μM
T1 construct: an enzyme isolated from pigeon breast muscle (Sigma Aldrich) was used in the form of an ammonium sulfate suspension; tissue Sigma-Aldrich; host or cells: pigeon breast muscle
T1 sequence (P52826 31-627): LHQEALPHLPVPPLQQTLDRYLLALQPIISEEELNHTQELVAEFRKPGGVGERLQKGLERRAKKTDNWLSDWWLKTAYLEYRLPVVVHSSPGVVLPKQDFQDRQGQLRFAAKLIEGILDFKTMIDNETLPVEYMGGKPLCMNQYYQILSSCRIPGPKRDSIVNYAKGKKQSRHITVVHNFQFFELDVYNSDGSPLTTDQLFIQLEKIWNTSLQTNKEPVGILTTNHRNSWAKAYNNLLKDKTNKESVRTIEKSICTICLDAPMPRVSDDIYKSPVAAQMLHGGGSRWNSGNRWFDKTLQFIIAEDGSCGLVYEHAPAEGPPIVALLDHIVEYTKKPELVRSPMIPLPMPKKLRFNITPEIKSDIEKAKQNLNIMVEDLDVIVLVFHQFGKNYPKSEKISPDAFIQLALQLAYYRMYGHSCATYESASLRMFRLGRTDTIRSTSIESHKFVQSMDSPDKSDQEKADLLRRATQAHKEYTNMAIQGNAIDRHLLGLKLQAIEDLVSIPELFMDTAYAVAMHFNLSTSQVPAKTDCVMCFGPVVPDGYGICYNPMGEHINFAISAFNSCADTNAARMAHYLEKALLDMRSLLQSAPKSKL
Method: To assess the inhibitory potential of the synthesized compounds against CAT, we conducted an initial screening at three concentrations: 100 μM, 250 μM and 1000 μM. Readings were taken within the first minute after the reaction started, and inhibition was measured using a kinetic method, as described in the Experimental section. The results are summarized and presented as a percentage of inhibition in Figure 2 and Figure 3 for the 3-alkyl-3,4-dihydroisocoumarin-4-carboxylic acids and the 3-alkyl/3-aryl-6,7-dimethoxy-3,4-dihydroisocoumarin-4-carboxylic acids, respectively.
To determine the effect of the synthesized compounds on CAT activity, a modified procedure for spectrophotometric determination of L-carnitine using Ellman’s reagent was used. In all analyses, an enzyme isolated from pigeon breast muscle (Sigma Aldrich) was used in the form of an ammonium sulfate suspension with an activity of 71 U/mg protein. One unit of enzyme catalyzes the conversion of 1 μmol of L-carnitine and acetyl-CoA into acetylcarnitine and free CoA in 1 min. Phosphate buffer (0.5 M, pH = 7.6) is used to dilute the enzyme to obtain a stock solution with a concentration of 24 U/mL.
Ellman’s reagent was prepared immediately before each measurement by dissolving 25 mg DTNB in 5 mL 1 mM solution of Na2EDTA in phosphate buffer (0.5 M, pH = 7.6). Stock solutions of acetyl-CoA and L-carnitine were prepared in deionized water with concentrations of 348.0 μM and 303.4, respectively. An aqueous solution of tris (hydroxymethyl) aminomethane (TRIS) with pH = 7.6 and 1 M concentration was used as a buffer solution. Test compounds were dissolved and diluted in phosphate buffer (0.5 M, pH = 7.6) to the desired stock concentration. The working volume of the reaction is 300 μL and contains 50 μL of each of the six components (DTNB, TRIS, acetyl-CoA, CAT, L-carnitine and inhibitor) solutions with concentrations as described below. In the control samples, the inhibitor solution is replaced with phosphate buffer (0.5 M, pH = 7.6). The incubation time for all components without L-carnitine is 5 min at 37 °C. The reaction was started by adding L-carnitine, and its progress was monitored by reading the change in absorbance at 405 nm in kinetic mode. The concentrations of the components in the final volume were, c (DTNB) = 114 μM, c (TRIS) = 100 mM, c (acetyl-CoA) = 58 μM, c (CAT) = 4 U/mL and c (L-carnitine) = 50.56 μM. The time for reading the results was the first minute after starting the reaction.

[2] = target: T1, carnitine acetyltransferase (CAT); assay: Kinetic studies of CAT inhibition mechanism (Michaelis-Menten / Lineweaver-Burk, SigmaPlot regression); type: biochemical, pigeon; conditions: for Ki: mixed-type inhibition model, L-carnitine varied; for Type / mechanism of inhibition: model chosen by R^2, AIC and Sy,x
Source text: These experiments allowed us to identify the inhibition mechanism and calculate Km, Vmax and Ki. We used SigmaPlot version 12.5 (Systat Software Inc., San Jose, CA, USA), which includes modules for regression analysis and various inhibition models. This software also lets us choose the mechanism of inhibition with the highest correlation factors (coefficient of determination (R^2) and Akaike information coefficient (AIC)) and the lowest Sy,x value. The numerical results are summarized in Table 1, while the corresponding Lineweaver–Burk and Michaelis–Menten kinetic plots are available in the Supplementary Materials.
(Michaelis-Menten) and 1/v0 vs. […] (Lainweaver-Burke) relationships. For this purpose, five solutions with different concentrations of the inhibitor and five solutions with different concentrations of L-carnitine were prepared. […] The time for reading the results is every six seconds for three minutes after the start of the reaction, which corresponds to the end of the linear interval. The initial velocity v0 was determined using the method proposed by Baici, by calculating the cut-off of the v vs. t (time) dependence for the linear interval of each of the reactions. Graphical dependencies are provided in the Supplementary Materials (Figures S1–S3).
Figure S2. Graphs representing the dependence of the initial velocity (v 0) on the concentration of the substrate [S], according to the model of Michaelis -Menten – left, and Lineweaver-Burk – right, for reversible a) mixed, b) non-competitive, c) uncompetitive and d) competitive inhibition. The concentration of the inhibitor - compound cis-8 are 0 μM, 25.6 μM, 51.2 μM and 68.3 μM, concentration of L-carnitine are 94 μM, 180 μM, 370 μM, 750 μM and 1500 μM.
Figure S3. Graphs representing the dependence of the initial velocity (v 0) on the concentration of […]
for reversible a) mixed, b) uncompetitive, c) non-competitive and d) competitive inhibition. The concentration of the inhibitor - compound trans-8 are 0 μM, 26.0 μM, 52.0 and 69.4 μM,

[3] = target: carnitine acetyltransferase (CAT); parameters: method as in PMID 39942839; conditions: positive control; ref [21]; cited from earlier work
[4] = fit to competitive inhibition model
[5] = fit to non-competitive inhibition model
[6] = fit to uncompetitive inhibition model
[7] = non-competitive inhibition model

## CCCC1OC(=O)c2ccccc2C1C(=O)O (mixture of isomers) [M2-1, Cis- and Trans-(±)-3-Propyl-3,4-Dihydro-1-Oxo-1H-Isochromene-4-Carboxylic Acids]
[1]; inhibitor 100 μM
  CAT inhibition (%): 1%
[1]; inhibitor 250 μM
  CAT inhibition (%): 3%
[1]; inhibitor 1000 μM
  CAT inhibition (%): 7%

## CCCCCCCC1OC(=O)c2ccccc2C1C(=O)O (racemic) [cis-2, Cis- and Trans-(±)-3-Heptyl-3,4-Dihydro-1-Oxo-1H-Isochromene-4-Carboxylic Acids]
[1]
  inhibition at 100 µM: 3%
  inhibition at 250 µM: 10%
  inhibition at 1000 µM: 16%

## CCCCCCCCCC1OC(=O)c2ccccc2C1C(=O)O (racemic) [cis-3, Cis- and Trans-(±)-3,4-Dihydro-3-Nonyl-1-Oxo-1H-Isochromene-4-Carboxylic Acids]
[1]
  inhibition at 100 µM: 9%
  inhibition at 250 µM: 28%
  inhibition at 1000 µM: 97%

## CCCCCCCCCCC1OC(=O)c2ccccc2C1C(=O)O (racemic) [cis-4, Cis- and Trans-(±)-3-Decyl-3,4-Dihydro-1-Oxo-1H-Isochromene-4-Carboxylic Acids]
[1]; inhibitor 100 μM, 100 µM
  CAT inhibition (%): 31%
[1]
  inhibition at 250 µM: 96%
  inhibition at 1000 µM: 97%

## CCCCCCCC1OC(=O)c2cc(OC)c(OC)cc2C1C(=O)O (racemic) [cis-6, Cis- and Trans-(±)-3-Heptyl-3,4-Dihydro-6,7-Dimethoxy-1-Oxo-1H-Isochromene-4-Carboxylic Acids]
[1]
  inhibition at 1000 µM: 27%

## CCCCCCCCCC1OC(=O)c2cc(OC)c(OC)cc2C1C(=O)O (racemic) [cis-7, Cis- and Trans-(±)-3,4-Dihydro-6,7-Dimethoxy-3-Nonyl-1-Oxo-1H-Isochromene-4-Carboxylic Acids]
[1]
  inhibition at 100 µM: 8%
  inhibition at 250 µM: 43%
  inhibition at 1000 µM: 85%

## CCCCCCCCCCC1OC(=O)c2cc(OC)c(OC)cc2C1C(=O)O (racemic) [cis-8, Cis- and Trans-(±)-3-Decyl-3,4-Dihydro-6,7-Dimethoxy-1-Oxo-1H-Isochromene-4-Carboxylic Acids]
[1]
  inhibition at 100 µM: 44%
  inhibition at 250 µM: 71%
  inhibition at 1000 µM: 85%
[2]; [4]
  AIC: −1519.782
  Sy,x: 5.211 × 10^−9
[2]; fit to mixed inhibition model
  AIC: −1562.764
  Sy,x: 2.987 × 10^−9
[2]; [5]
  AIC: −1565.380
  Sy,x: 2.947 × 10^−9
[2]; [6]
  AIC: −1550.555
  Sy,x: 3.547 × 10^−9
[2]; mixed inhibition model
  α: 0.97
[2]
  Ki: 130 µM
  Type / mechanism of inhibition: mixed-type inhibitors; also recorded: allosteric inhibitor
[2]; listed as cis-3-decyl-6,7-dimethoxy-3,4-dihydroisocoumarin-4-carboxylic acid
  Type / mechanism of inhibition: mixed inhibition
[2]; [7]
  α: 1

## COc1cc2c(cc1OC)C(C(=O)O)C(c1cccc(OC)c1OC)OC2=O (racemic) [cis-10, Cis- and Trans-(±)-3,4-Dihydro-3-(2,3-Dimethoxyphenyl)-6,7-Dimethoxy-1-Oxo-1H-Isochromene-4-Carboxylic Acids]
[1]
  inhibition at 100 µM: 1%
  inhibition at 250 µM: 2%
  inhibition at 1000 µM: 12%

## CCCCCCCC1OC(=O)c2ccccc2C1C(=O)O (racemic) [trans-2, Cis- and Trans-(±)-3-Heptyl-3,4-Dihydro-1-Oxo-1H-Isochromene-4-Carboxylic Acids]
[1]; inhibitor 100 μM, 100 µM
  CAT inhibition (%): 4%
[1]; inhibitor 250 μM, 250 µM
  CAT inhibition (%): 6%
[1]; inhibitor 1000 μM, 1000 µM
  CAT inhibition (%): 25%

## CCCCCCCCCC1OC(=O)c2ccccc2C1C(=O)O (racemic) [trans-3, Cis- and Trans-(±)-3,4-Dihydro-3-Nonyl-1-Oxo-1H-Isochromene-4-Carboxylic Acids]
[1]; inhibitor 100 μM, 100 µM
  CAT inhibition (%): 17%
[1]; inhibitor 250 μM, 250 µM
  CAT inhibition (%): 40%
[1]; inhibitor 1000 μM, 1000 µM
  CAT inhibition (%): 91%

## CCCCCCCCCCC1OC(=O)c2ccccc2C1C(=O)O (racemic) [trans-4, Cis- and Trans-(±)-3-Decyl-3,4-Dihydro-1-Oxo-1H-Isochromene-4-Carboxylic Acids]
[1]; inhibitor 100 μM, 100 µM
  CAT inhibition (%): 54%
[1]; inhibitor 250 μM, 250 µM
  CAT inhibition (%): 79%
[1]; inhibitor 1000 μM
  CAT inhibition (%): 97%

## CCCCCCCCCCC1OC(=O)c2cc(OC)c(OC)cc2C1C(=O)O (racemic) [trans-8, Cis- and Trans-(±)-3-Decyl-3,4-Dihydro-6,7-Dimethoxy-1-Oxo-1H-Isochromene-4-Carboxylic Acids]
[2]; [4]
  AIC: −1490.723
  Sy,x: 7.493 × 10^−9
[2]; fit to mixed inhibition model
  AIC: −1548.364
  Sy,x: 3.576 × 10^−9
[2]; [5]
  AIC: −1542.332
  Sy,x: 3.931 × 10^−9
[2]; [6]
  AIC: −1548.795
  Sy,x: 3.626 × 10^−9
[2]; mixed inhibition model
  α: 0.21
[2]
  Ki: 377 µM
  Type / mechanism of inhibition: mixed-type inhibitors
[2]; listed as trans-3-decyl-6,7-dimethoxy-3,4-dihydroisocoumarin-4-carboxylic acid
  Type / mechanism of inhibition: mixed inhibition
[2]; [7]
  α: 1

## COc1cc2c(cc1OC)C(C(=O)O)C(c1ccccc1)OC2=O (racemic) [trans-9, Cis- and Trans-(±)-3,4-Dihydro-6,7-Dimethoxy-1-Oxo-3-Phenyl-1H-Isochromene-4-Carboxylic Acids]
[1]
  inhibition at 100 µM: 1%

## C[N+](C)(C)NCCC(=O)[O-] [Meldonium]
[3]
  IC50: 11400 µM

## COc1ccc(OC)c(C2OC(=O)c3cc(OC)c(OC)cc3C2C(=O)O)c1 (stereo not drawn) [cis-11, Cis- and Trans-(±)-3,4-Dihydro-3-(2,5-Dimethoxyphenyl)-6,7-Dimethoxy-1-Oxo-1H-Isochromene-4-Carboxylic Acids]
[1]
  inhibition at 100 µM: 1%
  inhibition at 250 µM: 6%
  inhibition at 1000 µM: 22%

From PMC12348882, “Rational Design, Synthesis and In Vitro Activity of Diastereomeric Cis-/Trans-3-Substituted-3,4-Dihydroisocoumarin-4-Carboxylic Acids as Potential Carnitine Acetyltransferase Inhibitors” (Molecules, 2025)
